Data taken from patent US9975874B2, “Factor XIa inhibitors” (Merck Sharp & Dohme Corp., priority 2014, dated 2018).

How the values were obtained:
[1] = target: purified human Factor XIa (Homo sapiens (Human), UniProt P03951); test: Factor XIa Assay; type: biochemical; details: substrate Z-Gly-Pro-Arg-AFC 100 μM, 40 pM enzyme, pH 7.4; read-out: FXIa IC50
Protocol: The effectiveness of a compound of the present invention as an inhibitor of Coagulation Factor XIa can be determined using a relevant purified serine protease, and an appropriate synthetic substrate. The rate of hydrolysis of the chromogenic or fluorogenic substrate by the relevant serine protease was measured both in the absence and presence of compounds of the present invention. Assays were conducted at room temperature or at 37° C. […] A decrease in the rate of fluorescence change in the presence of inhibitor is indicative of enzyme inhibition. Such methods are known to one skilled in the art. […]
Factor XIa determinations were made in 50 mM HEPES buffer at pH 7.4 containing 150 mM NaCl, 5 mM CaCl2, and 0.1% PEG 8000 (polyethylene glycol; JT Baker or Fisher Scientific). Determinations were made using purified human Factor XIa at a final concentration of 40 pM (Sekisui Diagnostics) and the synthetic substrate, Z-Gly-Pro-Arg-AFC, TFA salt (Sigma #C0980) at a concentration of 100 μM.
Times required to achieve equilibration between enzyme and inhibitor were determined in control experiments. Initial velocities of product formation in the absence (Vo) or presence of inhibitor (Vi) were measured. Assuming competitive inhibition, and that unity is negligible compared Km/[S], [I]/e, and [I]/e (where [S], [I], and e respectively represent the total concentrations, of substrate, inhibitor and enzyme), the equilibrium constant (Ki) for dissociation of the inhibitor from the enzyme can be obtained from the dependence of Vo/Vi on [I] shown in the following equation.

[2] = target: purified Human plasma kallikrein (Homo sapiens (Human), UniProt P03952); test: Kallikrein Assay; type: biochemical; details: Plasma kallikrein; substrate Acetyl-K-P-R-AFC, 0.5 nM enzyme, pH 7.4; read-out: PK IC50
purified Human plasma kallikrein, sequence (P03952 391-638): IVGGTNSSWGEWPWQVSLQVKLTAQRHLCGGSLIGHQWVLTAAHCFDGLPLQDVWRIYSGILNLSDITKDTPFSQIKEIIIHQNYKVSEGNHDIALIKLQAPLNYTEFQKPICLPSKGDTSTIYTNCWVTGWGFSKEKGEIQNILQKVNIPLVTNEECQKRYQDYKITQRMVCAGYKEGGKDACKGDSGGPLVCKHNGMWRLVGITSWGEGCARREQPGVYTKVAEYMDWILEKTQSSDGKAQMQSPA
purified Human plasma kallikrein, sequence (P03952 20-390 partner): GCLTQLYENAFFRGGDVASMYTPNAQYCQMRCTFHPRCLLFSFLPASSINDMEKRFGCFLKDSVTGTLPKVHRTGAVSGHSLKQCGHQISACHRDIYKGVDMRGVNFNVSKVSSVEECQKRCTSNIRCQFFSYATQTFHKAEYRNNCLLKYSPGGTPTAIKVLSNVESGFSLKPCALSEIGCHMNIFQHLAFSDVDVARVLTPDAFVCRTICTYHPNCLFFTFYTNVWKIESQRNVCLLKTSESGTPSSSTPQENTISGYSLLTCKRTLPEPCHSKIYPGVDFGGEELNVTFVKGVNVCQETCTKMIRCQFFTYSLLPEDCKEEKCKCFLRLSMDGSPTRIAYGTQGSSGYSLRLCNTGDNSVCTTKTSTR
Protocol: The effectiveness of a compound of the present invention as an inhibitor of Kallikrein can be determined using a relevant purified serine protease, and an appropriate synthetic substrate. The rate of hydrolysis of the chromogenic or fluorogenic substrate by the relevant serine protease was measured both in the absence and presence of compounds of the present invention. Assays were conducted at room temperature or at 37° C. […] A decrease in the rate of fluorescence change in the presence of inhibitor is indicative of enzyme inhibition. Such methods are known to one skilled in the art. The results of this assay are expressed as the inhibitory constant, Ki.
Kallikrein determinations were made in 50 mM HEPES buffer at pH 7.4 containing 150 mM NaCl, 5 mM CaCl2, and 0.1% PEG 8000 (polyethylene glycol; Fisher Scientific). Determinations were made using purified Human plasma kallikrein at a final concentration of 0.5 nM (Enzyme Research Laboratories) and the synthetic substrate, Acetyl-K-P-R-AFC (Sigma # C6608) at a concentration of […].
Times required to achieve equilibration between enzyme and inhibitor were determined in control experiments. The reactions were performed under linear progress curve conditions and fluorescence increase measured at 405 Ex/510 Em nm. […] IC50 was determined by inflection point from a four parameter logistic curve fit. Ki was calculated using the Cheng Prusoff equation, Ki=IC50/(1+([S]/Km)).

purified human Factor XIa, sequence (P03951 388-625): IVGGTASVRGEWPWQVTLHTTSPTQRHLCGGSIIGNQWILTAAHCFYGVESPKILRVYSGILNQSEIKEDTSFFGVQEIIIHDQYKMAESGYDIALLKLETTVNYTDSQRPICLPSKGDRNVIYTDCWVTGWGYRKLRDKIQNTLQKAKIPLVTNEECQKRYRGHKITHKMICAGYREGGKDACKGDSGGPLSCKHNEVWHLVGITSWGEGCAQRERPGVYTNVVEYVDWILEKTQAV
purified human Factor XIa, sequence (P03951 19-387 partner): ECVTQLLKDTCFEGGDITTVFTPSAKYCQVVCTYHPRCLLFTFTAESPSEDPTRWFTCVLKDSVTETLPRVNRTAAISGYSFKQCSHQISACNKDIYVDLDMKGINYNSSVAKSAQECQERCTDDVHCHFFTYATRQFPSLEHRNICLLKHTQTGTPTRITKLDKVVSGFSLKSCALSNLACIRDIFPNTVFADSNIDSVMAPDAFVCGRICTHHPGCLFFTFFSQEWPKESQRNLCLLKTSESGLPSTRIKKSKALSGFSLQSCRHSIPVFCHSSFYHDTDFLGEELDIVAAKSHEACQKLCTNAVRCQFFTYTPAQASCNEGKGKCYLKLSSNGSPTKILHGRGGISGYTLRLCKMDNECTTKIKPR

Row | Structure (SMILES) | IC50 [1] | IC50 [2]
1 | COC(=O)Nc1ccc(-c2cccc(C(Cc3ccccc3)c3ccc(-c4cc(Cl)ccc4-n4cnnn4)c[n+]3[O-])c2)cc1 (racemic) [Example 1, (±)-5-(5-Chloro-2-(1H-tetrazol-1-yl)phenyl)-2-(1-(4′-((methoxycarbonyl)amino)-[1,1′-biphenyl]-3-yl)-2-phenylethyl)pyridine 1-oxide] | 0.000634 µM | 0.0244 µM
2 | O=C(O)c1cccc(-c2cccc(C(Cc3ccccc3)c3ccc(-c4cc(Cl)ccc4-n4cnnn4)c[n+]3[O-])c2)c1 (racemic) [Example 7, 2-(1-(3′-carboxy-[1,1′-biphenyl]-3-yl)-2-phenylethyl)-5-(5-chloro-2-(1H-tetrazol-1-yl)phenyl)pyridine 1-oxide] | 0.000459 µM | 0.0777 µM
3 | O=C(O)c1ccc(-c2cccc(C(Cc3ccccc3)c3ccc(-c4cc(Cl)ccc4-n4cnnn4)c[n+]3[O-])c2)cc1 (racemic) [Example 10] | 0.0191 µM | 0.705 µM
4 | O=C(O)c1cccc(-c2cc(F)cc(C(Cc3ccccc3)c3ccc(-c4cc(Cl)ccc4-n4cnnn4)c[n+]3[O-])c2)c1 (racemic) [Example 13] | 0.000343 µM | 0.012 µM
5 | O=C(O)c1cccc(-c2cccc(C(CC3CC3)c3ccc(-c4cc(Cl)ccc4-n4cnnn4)c[n+]3[O-])c2)c1 (racemic) [Example 17] | 0.012 µM | 0.543 µM
6 | [O-][n+]1cc(-c2cc(Cl)ccc2-n2cnnn2)ccc1C(Cc1ccccc1)c1cccc(C2CCNCC2)c1 (racemic) [Example 20, 5-[5-chloro-2-(1H-tetrazol-1-yl)phenyl]-2-[2-phenyl-1-(3-piperidin-4-ylphenyl)ethyl] pyridine 1-oxide] | 0.216 µM | –
7 | CNC(=O)N1CCC(c2cccc(C(Cc3ccccc3)c3ccc(-c4cc(Cl)ccc4-n4cnnn4)c[n+]3[O-])c2)CC1 (racemic) [Example 21, 4-[3-(1-{5-[5-chloro-2-(1H-tetrazol-1-yl)phenyl]-1-oxidopyridin-2-yl}-2-phenylethyl)phenyl]-N-methyl piperidine-1-carboxamide] | 0.0102 µM | 0.496 µM
8 | CS(=O)(=O)N1CCC(c2cccc(C(Cc3ccccc3)c3ccc(-c4cc(Cl)ccc4-n4cnnn4)c[n+]3[O-])c2)CC1 (racemic) [Example 22, 5-[5-chloro-2-(1H-tetrazol-1-yl)phenyl]-2-(1-{3-[1-(methylsulfonyl)piperidin-4-yl]phenyl}-2-phenylethyl) pyridine 1-oxide] | 0.0594 µM | 1.04 µM
9 | O=C(O)c1ccc(-c2cccc(C(Cc3ccccc3)c3ccc(-c4cc(Cl)ccc4-n4cnnn4)c[n+]3[O-])c2)cc1 (single isomer, unassigned) [Example 12] | 3.5 µM | –
10 | COC(=O)Nc1ccc(-c2cccc([C@@H](Cc3ccccc3)c3ccc(-c4cc(Cl)ccc4-n4cnnn4)c[n+]3[O-])c2)cc1 [Example 2, (R)-5-(5-Chloro-2-(1H-tetrazol-1-yl)phenyl)-2-(1-(4′-((methoxycarbonyl)amino)-[1,1′-biphenyl]-3-yl)-2-phenylethyl)pyridine 1-oxide] | 0.424 µM | –
11 | CS(=O)(=O)c1ccc(-c2cccc([C@@H](Cc3ccccc3)c3ccc(-c4cc(Cl)ccc4-n4cnnn4)c[n+]3[O-])c2)cc1 [Example 5] | 10 µM | –
12 | O=C(O)c1cccc(-c2cc(F)cc([C@@H](Cc3ccccc3)c3ccc(-c4cc(Cl)ccc4-n4cnnn4)c[n+]3[O-])c2)c1 [Example 15] | 0.233 µM | –
13 | O=C(O)c1cccc(-c2cccc(C(CC3CC3)c3ccc(-c4cc(Cl)ccc4-n4cnnn4)c[n+]3[O-])c2)c1 (stereo not drawn) [Example 19] | 1 µM | –
14 | CCNC(=O)N1CCC(c2cccc([C@@H](Cc3ccccc3)c3ccc(-c4cc(Cl)ccc4-n4cnnn4)c[n+]3[O-])c2)CC1 [Example 27, 4-{3-[(1R)-1-{5-[5-chloro-2-(1H-tetrazol-1-yl)phenyl]-1-oxidopyridin-2-yl}-2-phenylethyl]phenyl}-N-ethyl-piperidine-1-carboxamide] | 1 µM | –
15 | O=C(C(F)F)N1CCC(c2cccc([C@H](Cc3ccccc3)c3ccc(-c4cc(Cl)ccc4-n4cnnn4)c[n+]3[O-])c2)CC1 [Example 37, 5-[5-chloro-2-(1H-tetrazol-1-yl)phenyl]-2-[(1S)-1-{3-[1-(difluoroacetyl)piperidin-4-yl]phenyl}-2-phenylethyl] pyridine 1-oxide] | – | 0.536 µM
16 | O=C(OCC(F)(F)F)N1CCC(c2cccc([C@H](Cc3ccccc3)c3ccc(-c4cc(Cl)ccc4-n4cnnn4)c[n+]3[O-])c2)CC1 [Example 46, 2,2,2-trifluoroethyl 4-{3-[(1S)-1-{5-[5-chloro-2-(1H-tetrazol-1-yl)phenyl]-1-oxidopyridin-2-yl}-2-phenylethyl]phenyl} piperidine-1-carboxylate] | 0.478 µM | –

Now from value to compound:

Row | IC50 [1] | IC50 [2] | Structure (SMILES)
17 | 0.0859 µM | – | COC(=O)N1CCC(c2cccc(C(Cc3ccccc3)c3ccc(-c4cc(Cl)ccc4-n4cnnn4)c[n+]3[O-])c2)CC1 (racemic) [Example 23, methyl 4-[3-(1-{5-[5-chloro-2-(1H-tetrazol-1-yl)phenyl]-1-oxidopyridin-2-yl}-2-phenylethyl)phenyl] piperidine-1-carboxylate]
18 | 1 µM | – | CC(C)(C)OC(=O)N1CCC(c2cccc([C@@H](Cc3ccccc3)c3ccc(-c4cc(Cl)ccc4-n4cnnn4)c[n+]3[O-])c2)CC1 [Example 25, tert-butyl 4-{3-[(1R)-1-{5-[5-chloro-2-(1H-tetrazol-1-yl)phenyl]-1-oxidopyridin-2-yl}-2-phenylethyl]phenyl} piperidine-1-carboxylate]
19 | 0.247 µM | – | CC(C)(C)OC(=O)N1CCC(c2cccc([C@H](Cc3ccccc3)c3ccc(-c4cc(Cl)ccc4-n4cnnn4)c[n+]3[O-])c2)CC1 [Example 26, tert-butyl 4-{3-[(1S)-1-{5-[5-chloro-2-(1H-tetrazol-1-yl)phenyl]-1-oxidopyridin-2-yl}-2-phenylethyl]phenyl} piperidine-1-carboxylate]
20 | 0.131 µM | – | CCCOC(=O)N1CCC(c2cccc([C@H](Cc3ccccc3)c3ccc(-c4cc(Cl)ccc4-n4cnnn4)c[n+]3[O-])c2)CC1 [Example 41, propyl 4-{3-[(1S)-1-{5-[5-chloro-2-(1H-tetrazol-1-yl)phenyl]-1-oxidopyridin-2-yl}-2-phenylethyl]phenyl} piperidine-1-carboxylate]
21 | 0.557 µM | – | CC(C)COC(=O)N1CCC(c2cccc([C@H](Cc3ccccc3)c3ccc(-c4cc(Cl)ccc4-n4cnnn4)c[n+]3[O-])c2)CC1 [Example 42, 2-methylpropyl 4-{3-[(1S)-1-{5-[5-chloro-2-(1H-tetrazol-1-yl)phenyl]-1-oxidopyridin-2-yl}-2-phenylethyl]phenyl} piperidine-1-carboxylate]
22 | 0.0634 µM | – | O=C(OCCF)N1CCC(c2cccc([C@H](Cc3ccccc3)c3ccc(-c4cc(Cl)ccc4-n4cnnn4)c[n+]3[O-])c2)CC1 [Example 43, 2-fluoroethyl 4-{3-[(1S)-1-{5-[5-chloro-2-(1H-tetrazol-1-yl)phenyl]-1-oxidopyridin-2-yl}-2-phenylethyl]phenyl} piperidine-1-carboxylate]
23 | 0.184 µM | – | O=C(OCC1CC1)N1CCC(c2cccc([C@H](Cc3ccccc3)c3ccc(-c4cc(Cl)ccc4-n4cnnn4)c[n+]3[O-])c2)CC1 [Example 44, cyclopropyl-methyl 4-{3-[1S)-1-{5-[5-chloro-2-(1H-tetrazol-1-yl)phenyl]-1-oxidopyridin-2-yl}-2-phenylethyl] phenyl} piperidine-1-carboxylate]
